Results from ChEMBL document CHEMBL6153073, “Synthesis and functional screening of novel inhibitors targeting the HDAC6 zinc finger ubiquitin-binding domain” (Eur J Med Chem, 2025).
The source made the active and inactive calls. The calls are words filed in the database; no cut-off is given here. Where a SMILES comes first, the peptide text is derived from it. The star is where a group is joined. Cbz = O=C(OCc1ccccc1)*

Key:
[1] = biological target: T1, Protein deacetylase HDAC6 (Homo sapiens, UniProt Q9UBN7); assay: Displacement of FITC-labeled C-terminal ubiquitin LRLRGG peptide from HDAC6-ubiquitin binding domain (1109 to 1215 residues) (unknown origin) extracted from Escherichia coli BL21 (DE3) by FPPD assay
T1 sequence (Q9UBN7 whole entry): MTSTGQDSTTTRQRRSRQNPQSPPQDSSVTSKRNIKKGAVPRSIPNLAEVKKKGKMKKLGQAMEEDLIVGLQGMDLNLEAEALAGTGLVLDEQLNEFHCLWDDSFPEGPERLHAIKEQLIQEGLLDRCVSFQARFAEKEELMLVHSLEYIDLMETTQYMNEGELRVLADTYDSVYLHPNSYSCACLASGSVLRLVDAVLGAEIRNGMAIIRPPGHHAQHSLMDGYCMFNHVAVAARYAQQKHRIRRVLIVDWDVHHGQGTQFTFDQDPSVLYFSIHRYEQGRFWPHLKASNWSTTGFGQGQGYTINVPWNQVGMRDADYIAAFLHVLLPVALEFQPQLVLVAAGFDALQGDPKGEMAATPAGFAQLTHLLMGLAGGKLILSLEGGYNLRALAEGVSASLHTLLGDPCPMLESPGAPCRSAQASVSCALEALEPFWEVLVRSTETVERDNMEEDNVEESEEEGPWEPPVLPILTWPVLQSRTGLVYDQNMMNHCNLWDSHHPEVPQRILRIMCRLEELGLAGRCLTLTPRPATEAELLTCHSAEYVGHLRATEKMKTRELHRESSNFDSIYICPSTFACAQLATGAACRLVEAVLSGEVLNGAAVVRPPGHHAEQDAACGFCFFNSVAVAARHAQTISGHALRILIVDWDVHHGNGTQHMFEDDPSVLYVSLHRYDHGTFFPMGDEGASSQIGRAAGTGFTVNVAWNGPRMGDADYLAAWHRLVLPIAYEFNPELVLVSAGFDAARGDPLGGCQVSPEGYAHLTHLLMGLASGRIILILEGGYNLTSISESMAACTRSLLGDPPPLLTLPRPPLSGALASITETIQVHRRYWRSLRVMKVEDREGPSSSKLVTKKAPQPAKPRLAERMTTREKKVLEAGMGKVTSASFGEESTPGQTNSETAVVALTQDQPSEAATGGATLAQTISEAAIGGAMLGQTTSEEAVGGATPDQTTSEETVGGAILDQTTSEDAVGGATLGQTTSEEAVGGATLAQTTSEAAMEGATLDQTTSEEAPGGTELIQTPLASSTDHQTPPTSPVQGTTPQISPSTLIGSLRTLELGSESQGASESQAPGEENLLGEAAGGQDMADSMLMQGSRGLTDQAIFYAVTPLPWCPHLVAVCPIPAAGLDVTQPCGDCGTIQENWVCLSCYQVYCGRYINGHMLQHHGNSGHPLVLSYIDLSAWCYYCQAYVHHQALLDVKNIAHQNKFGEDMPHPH

[2] = tested on: HL-60; assay: Cytotoxicity against human HL-60 cells assessed as cell health index score at 0.005 to 100 uM incubated for 4 hrs by fluorescent dye based flow cytometric analysis; format: toxicity; conditions: hl-60, 4 h, dose 0.005-100 µM
[3] = Cytotoxicity against human Hep3B cells; format: toxicity, cell-based, Hep 3B2
[4] = tested on: MM1.S; assay: Cytotoxicity against human MM1.S cells assessed as reduction in cell viability at 1 to 10 nM incubated for 24 hrs by cellTiter-Glo luminescent cell viability assay; format: functional, cell-based
[5] = Cytotoxicity against green monkey […] cells; format: toxicity, cell-based; conditions: chlorocebus sabaeus
[6] = tested on: RPMI-8226; assay: Cytotoxicity against human RPMI-8226 cells at 8 nM incubated for 24 hrs by cellTiter-Glo assay relative to control; format: functional
[7] = tested on: RPMI-8226; assay: Cytotoxicity against human RPMI-8226 cells at 2 to 12 nM incubated for 24 hrs by cellTiter-Glo assay; format: functional, cell-based; conditions: RPMI-8226, 24 h
[8] = Cytotoxicity against dog MDCK cells; format: toxicity, cell-based, Canis lupus familiaris
[9] = tested on: MM1.S; assay: Cytotoxicity against human MM1.S cells at 8 nM incubated for 24 hrs by cellTiter-Glo assay relative to control; format: functional
[10] = Cytotoxicity against human HEp-2 cells; format: toxicity, cell-based
[11] = Cytotoxicity against human HEL 299 cells; format: toxicity, cell-based
[12] = biological target: T1, Protein deacetylase HDAC6; assay: Inhibition of HDAC6 deacetylase domain 2 (unknown origin) using fluorogenic HDAC substrate incubated for 15 to 60 mins by fluorimetric analysis
[13] = tested on: MM1.S; assay: Effect on bortezomib-induced human MM1.S cells at 1 to 10 uM pretreated with bortezomib for 6 hrs followed by compound addition and measured after 7 to 18 hrs by cellTiter-Glo luminescent cell viability assay; format: functional, cell-based; conditions: dose 1-10 µM, time 7-18 hrs
[14] = tested on: Hep 3B2; assay: Cytotoxicity against human Hep3B cells at 50 uM; format: toxicity, cell-based; conditions: hep 3b2, 50 µM
[15] = Cytotoxicity against green monkey […] cells at 50 uM; format: toxicity, cell-based; conditions: chlorocebus sabaeus
[16] = tested on: HEp-2; assay: Cytotoxicity against human HEp-2 cells at 50 uM; format: toxicity, cell-based; conditions: hep-2, 50 µM
[17] = tested on: MDCK; assay: Cytotoxicity against dog MDCK cells at 50 uM; format: toxicity, cell-based, Canis lupus familiaris
[18] = tested on: HEL 299; assay: Cytotoxicity against human HEL 299 cells at 50 uM; format: toxicity, cell-based; conditions: hel 299, 50 µM
[19] = tested on: MM1.S; assay: Cytotoxicity against human MM1.S cells at 0.025 to 0.3 uM incubated for 24 hrs by cellTiter-Glo luminescent cell viability assay; format: functional, cell-based

Compound: O=C(O)CCc1nc2ccccc2c(=O)n1Cc1ccc(Cl)cc1
- IC50 [1]: 68000 nM

Compound: CC(C)C[C@H](NC(=O)[C@H](Cc1ccccc1)NC(=O)c1cnccn1)B(O)O [BORTEZOMIB]
- Activity [2]: > 0.5
- CC50 [3]: 1200 nM
- IC50 [4]: 4.32 nM
- CC50 [5]: 1200 nM
- Activity [6]: ~50%
- IC50 [7]: 9.6 nM
- CC50 [8]: 1200 nM
- Activity [9]: ~10%
- CC50 [10]: 1200 nM
- CC50 [11]: 1200 nM

Compound: O=C(NO)c1ccc(Cn2c3c(c4ccccc42)CS(=O)(=O)CC3)cc1
- IC50 [12]: 19 nM

Compound: CN1CCc2c(c3ccccc3n2Cc2ccc(C(=O)NO)cc2)C1 [TUBASTATIN A]
- Activity [2]: > 0.5
- CC50 [5]: 400 nM
- CC50 [8]: 400 nM

Compound: O=C(O)CCc1nc2ccccc2c(=O)n1Cc1ccc(F)cc1
- IC50 [1]: 127000 nM

Compound: CCOC(=O)CCc1nc2ccccc2c(=O)n1Cc1ccccc1
- Activity [2]: 0.31

Compound: O=C(O)CCC1C(=O)N(Cc2ccccc2)c2ccccc21 (stereo not drawn)
- IC50 [1]: 542000 nM

Compound: Cn1c(CCC(=O)O)nc2ccccc2c1=O
- IC50 [1]: 5000 nM

Compound: CCCn1c(CCC(=O)O)nc2ccccc2c1=O
- IC50 [1]: 61700 nM

Compound: CC(/C=C/C(=O)NO)=C\[C@@H](C)C(=O)c1ccc(N(C)C)cc1 [TRICHOSTATIN]
- CC50 [3]: 400 nM

Compound: CCOC(=O)CCc1nc2ccccc2c(=O)n1C
- Activity [2]: 0.31
- Activity [13]: inactive

Compound: O=C(O)CCn1c2c(c3cc(F)ccc31)CS(=O)(=O)CC2
- IC50 [1]: 168000 nM

Compound: CCOC(=O)CCc1nc(OCc2ccccc2)c2ccccc2n1
- Activity [14]: Toxic
- Activity [15]: Toxic
- Activity [16]: Toxic
- Activity [17]: Toxic
- Activity [18]: Toxic

Compound: O=C(O)CCn1c2c(c3ccccc31)CS(=O)(=O)CC2
- IC50 [1]: 285000 nM

Compound: O=C(O)CCc1nc2ccccc2c(=O)n1Cc1ccccc1
- IC50 [1]: 33100 nM

Compound: O=C(O)CCn1c2c(c3cc(-c4ccc(F)cc4)ccc31)CS(=O)(=O)CC2
- IC50 [1]: 162000 nM

Compound: CCn1c(CCC(=O)O)nc2ccccc2c1=O
- IC50 [1]: 20500 nM

Compound: CCOC(=O)CCc1nc2ccccc2c(=O)n1Cc1ccc(F)cc1
- Activity [2]: 0.31

Compound: CC(C)C[C@@H](C=O)NC(=O)[C@H](CC(C)C)NC(=O)[C@H](CC(C)C)NC(=O)OCc1ccccc1 [MG-132] (Cbz-Leu-Leu-Leu-aldehyde)
- Activity [2]: > 0.5
- IC50 [19]: 150 nM
